According to patent publication US8034797B2, “Triazene compounds for the treatment of cancer” (Trin Therapeutics GmbH, priority 2007, dated 2011):
Where two headings read alike, the source gives them in different places.

Assays:
[1] = system: Tumour-carrying mice; assay: Nephrological tolerability (kidney post-mortem and histology); assay type: in vivo
Experimental: A control group was treated only with the carrier according to a twice weekly treatment scheme.
When the 28-day treatment period had ended, a post-mortem was carried out on the mice. […] The kidneys of all the animals in the test groups were removed by operation, fixed in formalin according to standard methods, embedded in paraffin and processed for HE staining.

[2] = system: LXFL 529; assay: Xenograft tumour panel, LXFL 529 (lung); assay type: in vivo, nude mice; conditions: 450-540 mg/kg ip twice weekly, 10 d (control ended early)
Experimental: (§1) Breast tumours (MAXF 401) were implanted subcutaneously into the rear members of the mice aged 10 weeks. The increase in the volume of the individual tumours was measured using microcallipers, and the size of the tumour was calculated according to the formula a*b^2/2 (where a is the largest diameter of the tumour and b is the vertical axis). When the tumour volume had increased to 80-120 mm^3, the animals were allocated at random into test groups of in each case 6 animals.
(§2) To this end, xenografts of human tumours derived from prostate, uterine, lung, pancreatic, bladder and “head and neck” cancers were implanted in nude mice. The implantation and the determination of tumour volumes were carried out as described hereinbefore. Groups of 5 to 8 animals were used. The test substance was administered by ip injection twice weekly in the mentioned doses in the form of the sodium salt as an aqueous solution.
(§3) The tumour xenografts used, the doses used, the duration of the therapy and a classification of observed anti-tumour actions are summarised in Table 2 below.

[3] = system: PAXF 1657; assay: Xenograft tumour panel, PAXF 1657 (pancreas); assay type: in vivo, nude mice; conditions: 450-540 mg/kg ip twice weekly, 21 d (control ended early); n.s.
Experimental: as §1, §2, §3

[4] = system: PRXF DU145; assay: Xenograft tumour panel, PRXF DU145 (prostate); assay type: in vivo, nude mice; conditions: 385-590 mg/kg ip twice weekly, 28 d
Experimental: as §1, §2, §3

[5] = Solubility in water; assay type: physicochemical; conditions: water, 25 °C, water
[6] = system: MAXF 401; assay: MAXF 401 breast tumour xenograft in nude mice; assay type: in vivo
Experimental: All the tests were carried out using female nude mice under standard conditions for the keeping of animals with controlled illumination and temperature. The animals were given water and food as desired.
The increase in the volume of the individual tumours was measured using microcallipers, and the size of the tumour was calculated according to the formula a*b^2/2 (where a is the largest diameter of the tumour and b is the vertical axis). When the tumour volume had increased to 80-120 mm^3, the animals were allocated at random into test groups of in each case 6 animals.
The test compounds (in the form of sodium salts) were dissolved in a saline solution, and 5% Klucel (hydroxypropylcellulose) was added in order to dissolve all the test compounds in the same carrier. […] A volume of 10 ml/kg body weight was injected. Animals that received only the carrier served as control. The test compounds were treated according to the scheme of twice weekly administration over a period of […]. The tumour volume and the body weight were checked twice weekly, and the relative tumour volumes were calculated as the ratio of tumour size to body weight.
On the basis of the relative tumour volumes of the animals treated with the test compounds compared with the tumour volumes of the controls treated only with the carrier, the T/C values were calculated and were used as the index of anti-tumour activity.
Subcutaneous implantation of the tumour and the determination of the tumour volume were carried out as described hereinbefore. The above-mentioned salts of the test substance were administered by ip injection twice weekly in the mentioned doses in the form of an aqueous solution, over a period of 4 weeks. […]
Subcutaneous implantation of the tumour and the determination of tumour volumes were carried out as described hereinbefore. The test substance was administered by ip injection twice weekly in the mentioned doses in the form of the sodium salt as an aqueous solution, over a period of 4 weeks.

[7] = system: HNXF 536; assay: Xenograft tumour panel, HNXF 536 (head & neck); assay type: in vivo, nude mice; conditions: 450-540 mg/kg ip twice weekly, 28 d
Experimental: as §1, §2, §3

[8] = system: BXF 1218; assay: Xenograft tumour panel, BXF 1218 (bladder); assay type: in vivo, nude mice; conditions: 450-540 mg/kg ip twice weekly, 7 d (control ended early); n.s.
Experimental: as §1, §2, §3

[9] = system: PRXF 22RV1; assay: Xenograft tumour panel, PRXF 22RV1 (prostate); assay type: in vivo, nude mice; conditions: 450-540 mg/kg ip twice weekly, 28 d
Experimental: as §1, §2, §3

[10] = system: MEXF 276; assay: Xenograft tumour panel, MEXF 276 (melanoma); assay type: in vivo, nude mice; conditions: 450-540 mg/kg ip twice weekly, 21 d (control ended early)
[11] = system: MEXF 462; assay: MEXF 462 melanoma xenograft model; assay type: in vivo, nude mice; conditions: for tumour volume in % of the tumour volume at the beginning of the test, Mean: 300 mg/kg ip twice weekly
Experimental: Breast tumours (MAXF 401) were implanted subcutaneously into the rear members of the mice aged 10 weeks. The increase in the volume of the individual tumours was measured using microcallipers, and the size of the tumour was calculated according to the formula a*b^2/2 (where a is the largest diameter of the tumour and b is the vertical axis). When the tumour volume had increased to 80-120 mm^3, the animals were allocated at random into test groups of in each case 6 animals. […]
The anti-tumour activity of the compounds was determined in the MEXF 462 xenograft tumour model in the nude mouse. Subcutaneous implantation of the tumour and the determination of tumour volumes were carried out as described hereinbefore. Groups of in each case 8 animals were used.
Equimolar amounts of the compound of Example 8 were administered ip twice weekly in the form of a 5% DMSO solution over the mentioned period.
The progression over time of the anti-tumour action, expressed in % of the tumour volume at the beginning of the test, over the period of therapy is shown in Table 3.

[12] = system: UXF 1138; assay: Xenograft tumour panel, UXF 1138 (uterus); assay type: in vivo, nude mice; conditions: 450-540 mg/kg ip twice weekly, 21 d (control ended early)
Experimental: as §1, §2, §3

[13] = system: CXF 280; assay: CXF 280 colon carcinoma xenograft model; assay type: in vivo, nude mice
Experimental: as §1, §2, §3
Subcutaneous implantation of the tumour and the determination of tumour volumes were carried out as described hereinbefore. The test substance was administered by ip injection twice weekly in the mentioned doses in the form of the sodium salt as an aqueous solution, over a period of 4 weeks. Groups of in each case 8 animals were used.

[14] = kidney histology after 28-day twice weekly ip treatment, equimolar to 450 mg of stock composition, affected/animals
[15] = dose range used (450-540 mg/kg)
[16] = extrapolated, ip twice weekly over 4 weeks

CN(C)/N=N/c1ccc(C(=O)c2ccc(OCCC(=O)NCC(=O)[O-])cc2)cc1.[Na+] [Example 2a]
macroscopic findings of the kidneys at post-mortem ([1]; after 28-day treatment period): without pathological findings | Acute single-cell necrosis [1, 14]: 0/9 | Focal tubular necrosis [1, 14]: 0/9 | Max. effect (Inhibition) [2]: Inhibition <50% * | Max. effect [3]: No anti-tumour | Max. effect (Inhibition) [4]: Inhibition >50% ** | solubility ([5]; 25° C., read-out: solubility in water at 25° C.): 500 mg/mL | solubility ([5]; room temperature (25° C.), read-out: water solubility at room temperature (25° C.)): 500 mg/mL | Max. effect ([6]; 300-540 mg/kg ip twice weekly, 28 d, ***): Remission *** | ED50 ([6]; Mus musculus, MAXF401, 672 h, ip twice weekly over 4 weeks, read-out: ED50 of the anti-tumour action): 450 mg/kg | effect at the highest dose ([6]; highest dose, ip twice weekly over 4 weeks): remission of the tumours | ED90 of the anti-tumour action ([6]; ip twice weekly over 4 weeks): 500 mg/kg | threshold dose of the anti-tumour action ([6]; ip twice weekly over 4 weeks): 300 mg/kg | Max. effect (Inhibition) [7]: Inhibition <50% ** | Max. effect (Inhibition) [8]: Inhibition <50% n.s. | Max. effect (Inhibition) [9]: Inhibition <50% ** | Max. effect (Inhibition) [10]: Inhibition >50% *** | Max. effect ([11]; 100-540 mg/kg ip twice weekly, 28 d, ***): Remission *** | tumour volume in % of the tumour volume at the beginning of the test, Mean ([11]; day 0): 100% | tumour volume in % of the tumour volume at the beginning of the test, Mean ([11]; day 3): 316% | tumour volume in % of the tumour volume at the beginning of the test, Mean ([11]; day 7): 240% | tumour volume in % of the tumour volume at the beginning of the test, Mean ([11]; day 11): 187% | tumour volume in % of the tumour volume at the beginning of the test, Mean ([11]; day 14): 166% | tumour volume in % of the tumour volume at the beginning of the test, Mean ([11]; day 18): 83% | tumour volume in % of the tumour volume at the beginning of the test, Mean ([11]; day 21): 67% | tumour volume in % of the tumour volume at the beginning of the test, Mean ([11]; day 25): 40% | tumour volume in % of the tumour volume at the beginning of the test, Mean ([11]; day 28): 30% | outcome of treatment ([11]; equimolar doses ip twice weekly over 4 weeks): partial remission | Max. effect (Inhibition) [12]: Inhibition >50% ** | anti-tumour action ([13]; 450, 500 or 540 mg/kg ip twice weekly over 4 weeks, all doses): pronounced anti-tumour action | Max. effect ([13]; 450-540 mg/kg ip twice weekly, 28 d, ***): Remission *** | ED50 ([13]; Mus musculus, 672 h, extrapolated, ip twice weekly over 4 weeks): 390 mg/kg | tolerability [13, 15]: well tolerated | weight loss in the animals [13, 15]: not associated with a significant weight loss | ED20 [13, 16]: 330 mg/kg | ED90 [13, 16]: 490 mg/kg
